The text below walks through data of ChEMBL document CHEMBL1155766, “Secondary metabolites from the roots of Astragalus zahlbruckneri” (J Nat Prod, 2001).

Activity calls are given as the source filed them. The rule behind the calls is not given here.

The assay deals with T1, Sex hormone-binding globulin (Homo sapiens) (UniProt P04278).
T1 sequence (whole entry): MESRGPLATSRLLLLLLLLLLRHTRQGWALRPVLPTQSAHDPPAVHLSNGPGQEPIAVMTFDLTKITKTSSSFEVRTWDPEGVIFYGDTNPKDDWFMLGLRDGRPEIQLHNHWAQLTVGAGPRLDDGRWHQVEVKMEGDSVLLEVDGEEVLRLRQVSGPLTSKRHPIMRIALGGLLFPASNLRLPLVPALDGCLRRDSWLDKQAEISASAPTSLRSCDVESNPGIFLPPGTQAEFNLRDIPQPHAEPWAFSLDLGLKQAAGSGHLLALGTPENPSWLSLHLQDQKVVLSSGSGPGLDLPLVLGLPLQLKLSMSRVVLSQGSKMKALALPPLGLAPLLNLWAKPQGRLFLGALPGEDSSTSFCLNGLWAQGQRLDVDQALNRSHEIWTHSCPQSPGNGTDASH
As to the kind of experiment: Binding affinity to human sex hormone binding globulin.

Take `COc1cc([C@@H]2O[C@@H](c3ccc(O)c(OC)c3)[C@H](CO)[C@H]2CO)ccc1O`: the outcome was Active.
